Results as given in patent US20230321101A1, “METHODS AND USES OF HALOFUGINONE” (The Regents of the University of California, priority 2020, published 2023).
pEC50: −log10 of the molar value. “And” between values parts separate entries of the source, which are not always exact repeats. Equal entries are not always repeated. “Also recorded” adds a separate entry of the source.

Key:
[1] = tested on: cell surface heparan sulfate of Hep3B cells; assay: Heparan sulfate presentation by anti-HS mAb 10E4 staining of Hep3B cells; assay type: cell-based, human
[2] = tested on: authentic SARS-CoV-2; assay type: cell-based
[3] = tested on: SARS-CoV-2; assay: SARS-CoV-2 infected hamsters, oral halofuginone, lung pathology; assay type: in vivo; settings: vs PBS
From the text: FIG. 37A-FIG. 37F: Oral dosing of halofuginone to hamsters infected with SARS-CoV-2 improved hamster lung pathology relative to a control group of hamsters (PBS).

[4] = tested on: Hep3B cells transcriptome; assay: RNA-Seq of Hep3B cells treated with halofuginone; assay type: cell-based, human
[5] = tested on: ZIKV (Zika virus); assay: ZIKV antiviral immunofluorescence assay in SH-SY5Y cells; assay type: cell-based; settings: Zika virus, read-out: EC50 ZIKV
Experimental: Experimental Procedure. The antiviral activity of 8 dilutions of each compound was explored by adding the drug to the assay cells 2 h after infection with the different viruses. Virus and compounds were left on the cells for the entire duration of the experiment (28 h for Zika virus and 24 h for all other viruses). The cytotoxicity of the same range of concentrations of compounds was determined by LDH release assay in the same cell lines.
Cell plating. Cells were detached and counted following SOP-RA 003 and SOP-RA 004. Count was recorded in the Cell Count Logbook, Volume 1. For each virus four plates were seeded, two for the antiviral assay and two for the cytotoxicity assay. Cells were seeded in 100 μl/well of complete media at the following densities: • Huh7: 8,000 cells/well (Dengue) • SH-SY5Y: 10,000 cells/wells (Zika) • HeLa Tzmbl: 8,000 cells/well (HIV)
Compounds dilutions. The 22.1 mM stocks were further diluted to 1 mM in DMSO by adding 211 μl of DMSO to 10 μl of compound. Three serial dilutions were prepared in different media for different viruses/cells. For each dilution, drugs were prepared at twice the final concentration in 50 μl volume, because they are diluted to the final concentration by an equal volume of virus or media.
Infection. Cells were infected in 50 μl of supplemented media/well at the following multiplicity of infection (MOI): • DENV-2, MOI 1 • ZIKV, MOI 5 • HIV, MOI 0.5
After removing culture media from cells, 50 μl of virus dilution were added to all wells except Column 11 (uninfected control), where the same volume of supplemented media was added. […]
Infectivity readout. […] The primary antibodies were detected with an Alexa-488 conjugate secondary antibody (Life Technologies, A11001), and nuclei were stained with Hoechst. Images were acquired on a CellInsight CX5 high content platform (Thermo Scientific) using a 4× objective, and percentage infection calculated using CellInsight CX5 software (infected cells/total cells×100).
Determination of % Inhibition—IF assay. Normalized percentages of inhibition were calculated using the following formula: […]

[6] = tested on: Huh 7.5 cells; assay: Cell viability of Huh 7.5 cells, alamarBlue; assay type: cell-based, human; settings: Huh 7.5, 24 hr
Experimental: FIG. 28. Cell viability in Huh 7.5 cells after treatment for 24 hours with Halofuginone. Cell viability was measured using alamarBlue staining in HuH 7.5 cells at indicated concentrations of halofuginone after a 24 hr treatment (n=3 per dose). Data shown as mean±S.D. Statistics performed by 1-way ANOVA (ns: p>0.05, *:p≤0.01).
Cell Culture. Huh-7.5 cells^1 were generously provided by Charles M. Rice (Rockefeller University, New York, NY). Hep3B, BHK-15 and Calu-3 cells were from ATCC and were grown in DMEM medium containing 10% % fetal bovine serum, and 100 IU/ml of penicillin, 100 μg/ml of streptomycin sulfate and nonessential amino acids. BHK-15 were grown in Modified Eagle's supplemented with 10% fetal bovine serum and nonessential amino acids (Gibco, #11140-050). Hep3B, A375 and Vero E6 cells were from ATCC. The Hep3B cells carrying mutations in HS biosynthetic enzymes was derived from the parent ATCC Hep3B stock, and have been described previously^2. All cells were supplemented with 10% FBS, 100 IU/ml of penicillin and 100 μg/ml of streptomycin sulfate and grown under an atmosphere of 5% CO2 and 95% air. Cells were passaged before 80% confluence was reached and seeded as explained for the individual assays. Cell viability was measured using LDH leakage (Promega) or alamarBleu (Thermo Fisher).

[7] = mice, cited from earlier work
[8] = tested on: hepcidin expression; assay: Hepcidin expression in the mouse liver upon iron loading; assay type: in vivo; settings: mice, 1 μg per mouse per day for 8 days, iron-rich diet (8.3 g/kg) for 7 days
Experimental: FIG. 10. […] Mice treated with Halofuginone for 8 days, 1 μg per mouse per day. Mice were either on normal iron-balanced chow (0.2 g/kg) or iron-rich diet (8.3 g/kg) for 7 days in conjunction with the treatment.

[9] = tested on: SARS-CoV-2 spike protein pseudotyped VSV; assay type: cell-based
[10] = clinical; settings: human, in vivo, po

SMILES: O=C(CC1NCCCC1O)Cn1cnc2cc(Br)c(Cl)cc2c1=O (racemic) [halofuginone]
- effect on heparan sulfate presentation (10E4 binding) ([1]; listed as Halofuginone): dose-dependently reduced 10E4 binding; also recorded: dose-dependently reduced the presence of cell surface heparan sulfate
- effect on heparan sulfate presentation (10E4 binding) ([1]; listed as halofuginone (MAZ1392)): reduced heparan sulfate presentation
- decrease of viral RNA levels [2]: 10- to 100 fold
- intracellular viral RNA [2]: did not change
- reduction of SARS-CoV-2 infectivity [2]: 3 Log and 4 Log
- reduction of secreted infectious virions [2]: ~1000 fold
- virus in plaque assays ([2]; HuH 7.5, doses above 100 nM): No virus was detected in plaque assays
- productive infection ([2]; Huh 7.5, 100 nM): prevented productive infection
- reduction of SARS-CoV-2 infection (viral titers) ([2]; Huh 7.5, 100 nM, pretreatment alone): ~30 fold
- lung fibrosis, blood clotting, and inflammation ([3]; oral 1 mg/kg): reduced lung fibrosis, blood clotting, and inflammation
- extended lung pathology ([3]; oral dosing): significant improvement
- lung pathology severity ([3]; oral dosing): significant improvement
- lung weight ([3]; oral dosing): significant improvement
- macroscopic lung pathology ([3]; oral dosing): significant improvement
- ATF4-mediated integrated stress response (ISR) ([4]; Hep3B RNA-Seq): induced a general ATF4-mediated ISR
- expression of host factors exploited by SARS-CoV-2, TMPRSS2 and ACE2 ([4]; Hep3B RNA-Seq): No significant difference in expression
- mRNA of HSPGs GPC2 (GPC1) and SDC1 with HS biosynthetic enzymes B3GAT3 and EXTL3 ([4]; Hep3B RNA-Seq): significantly downregulated
- unfolded protein-induced ER stress response ([4]; Hep3B RNA-Seq): did not activate the unfolded protein-induced ER stress response
- differentially expressed genes ([4]; Hep3B, 200 or 500 nM, 6 h and 18 h): ~2700 genes
- pEC50 [5]: 7.66
- cell viability [6]: without affecting cell viability
- exposure (area under the curve) in the lung compared to plasma ([7]; single intravenous injection): more than 87 fold
- tissue distribution [7]: highest tissue concentrations in the lung and kidney
- hepcidin expression in the liver [8]: reduces hepcidin expression in the mouse liver
- inhibition of pseudotyped VSV infection [9]: about 30 fold
- Cmax ([10]; 0.5 mg): ~1.3 nM
- Cmax ([10]; 3.5 mg): ~7.4 nM
